Like-named read-outs stand apart in the source and are kept apart here.
Columns and labels:
[1] = target: cloned human P2Y1 receptors (Homo sapiens (Human), UniProt P47900); assay: Binding Assay B - Scintillation Proximity Assay (SPA) for P2Y1 binding, [33P] 2MeS-ADP; settings: read-out: P2Y1 Ki (nM) using binding assay B
Experimental: Binding Assay B—Scintillation Proximity Assay (SPA) for P2Y1 Binding
A SPA membrane binding assay was used to identify inhibitors of [^33P] […] Reactions were allowed to proceed to completion at room temperature for 1 hour followed by centrifugation of the plate for 5 min. About 40 μL of the aqueous solution was aspirated. Plates were sealed and the [^33P]

[2] = tested on: human platelet rich plasma (PRP); assay: ADP induced platelet aggregation assay; settings: Homo sapiens, Platelet, 5 min, read-out: PA IC50 (μM) @ 10 μM ADP, human PRP, 10 μM ADP, AUC at 5 minute
Experimental: The ability of P2Y1 antagonists covered in the present invention to inhibit platelet aggregation induced by 10 μM ADP was tested using human platelet rich plasma (PRP) as described in Platelet Protocols: Research and Clinical Laboratory Procedures (White, M. M. et al., Academic Press (1999)). Human blood was collected in 30 μM (final concentration in blood) argatroban (GSK) as the anticoagulant at a ratio of 1 mL per 9 mL of blood. The PRP was isolated by centrifugation at 170 g for 12 minutes. The platelet poor plasma (PPP) was used as the blank for optical aggregometry. Compounds of the present invention in DMSO solution was preincubated with 250 μL PRP at 37° C. for 1 minute with stirring speed of 1000 rpm. Aggregation was initiated by addition of 2.5 μL of 1 mM ADP (Chrono-log, Havertown, Pa.) for a final ADP concentration of 10 μM. Platelet aggregation was monitored using Optical Aggregometer (Chrono-log, Havertown, Pa.) and the area under the curve (AUC) at 5 minute was measured. IC50 was calculated using vehicle control as 0% inhibition.

[3] = SPA, 0.3 nM [33P] 2MeS-ADP, Cheng-Prusoff

Sequence of cloned human P2Y1 receptors (P47900 whole entry): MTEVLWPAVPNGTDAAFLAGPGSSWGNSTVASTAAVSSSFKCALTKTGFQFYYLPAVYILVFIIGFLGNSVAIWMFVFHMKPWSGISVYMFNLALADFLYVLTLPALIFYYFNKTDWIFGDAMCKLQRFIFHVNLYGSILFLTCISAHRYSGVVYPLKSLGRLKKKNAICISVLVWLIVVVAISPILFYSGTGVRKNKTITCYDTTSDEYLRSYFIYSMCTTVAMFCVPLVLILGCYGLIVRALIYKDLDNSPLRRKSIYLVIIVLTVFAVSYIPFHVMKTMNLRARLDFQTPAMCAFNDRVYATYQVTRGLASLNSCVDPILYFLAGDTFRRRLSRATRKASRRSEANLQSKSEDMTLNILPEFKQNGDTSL

SMILES	Ki [1, 3] [nM]	IC50 [2] [µM]	Ki [1] [nM]
CC1(C)CN(c2ccccc2NC(=O)Nc2csc(Cl)n2)c2c(O)cc(F)c(-c3ccc(C(F)(F)F)cc3)c21 [Example 239, 1-(2-Chlorothiazol-4-yl)-3-(2-(5-fluoro-7-hydroxy-3,3-dimethyl-4-(4-(trifluoromethyl)phenyl)indolin-1-yl)phenyl)urea]	11.3	0.05	
CC(C)(C)CN1CCC(c2ccc(NC(=O)Nc3ccccc3N3CC(C)(C)c4c(-c5ccc(Cl)cc5)c(F)cc(O)c43)cc2)CC1 [Example 240, 1-(2-(4-(4-Chlorophenyl)-5-fluoro-7-hydroxy-3,3-dimethylindolin-1-yl)phenyl)-3-(4-(1-neopentylpiperidin-4-yl)phenyl)urea]	13.7	0.31	
CC(C)(C)c1ccc(-c2c(F)cc(O)c3c2C(C)(C)CN3c2ccccc2NC(=O)Nc2ccc(OC(F)(F)F)cc2)cc1 [Example 241, 1-(2-(4-(4-(tert-Butyl)phenyl)-5-fluoro-7-hydroxy-3,3-dimethylindolin-1-yl)phenyl)-3-(4-(trifluoromethoxy)phenyl)urea]	33.3	0.15	
CC(C)(C)c1ccc(-c2c(F)cc(O)c3c2C(C)(C)CN3c2ccccc2NC(=O)Nc2csc(Cl)n2)cc1 [Example 242, 1-(2-(4-(4-(tert-Butyl)phenyl)-5-fluoro-7-hydroxy-3,3-dimethylindolin-1-yl)phenyl)-3-(2-chlorothiazol-4-yl)urea]	12.6	0.06	
CC(C)(C)c1ccc(-c2c(F)cc(O)c3c2C(C)(C)CN3c2ccccc2NC(=O)Nc2csc(C(F)(F)F)n2)cc1 [Example 243, 1-(2-(4-(4-(tert-Butyl)phenyl)-5-fluoro-7-hydroxy-3,3-dimethylindolin-1-yl)phenyl)-3-(2-(trifluoromethyl)thiazol-4-yl)urea]	20.3	0.1	
Cc1cc(-c2c(F)cc(O)c3c2C(C)(C)CN3c2ccccc2NC(=O)Nc2ccc(OC(F)(F)F)cc2)ccc1F [Example 245, 1-(2-(5-Fluoro-4-(4-fluoro-3-methylphenyl)-7-hydroxy-3,3-dimethylindolin-1-yl)phenyl)-3-(4-(trifluoromethoxy)phenyl)urea]	11.4	0.19	
CC(C)(C)CN1CCC(NC(=O)Nc2ccccc2N2CC(C)(C)c3c(-c4ccc(C(F)(F)F)cc4)c(F)cc(O)c32)CC1 [Example 246, 1-(2-(5-Fluoro-7-hydroxy-3,3-dimethyl-4-(4-(trifluoromethyl)phenyl)indolin-1-yl)phenyl)-3-(1-neopentylpiperidin-4-yl)urea]	14.2	0.25	
CC1(C)CN(c2ccccc2NC(=O)Nc2ccc(OC(F)(F)F)cc2)c2c(O)cc(F)c(-c3cccc(C#N)c3)c21 [Example 247, 1-(2-(4-(3-Cyanophenyl)-5-fluoro-7-hydroxy-3,3-dimethylindolin-1-yl)phenyl)-3-(4-(trifluoromethoxy)phenyl)urea]	10	0.87	
CC1(C)CN(c2ccccc2NC(=O)Nc2ccc(OC(F)(F)F)cc2)c2c(O)cc(F)c(-c3ccc(C#N)cc3)c21 [Example 248, 1-(2-(4-(4-Cyanophenyl)-5-fluoro-7-hydroxy-3,3-dimethylindolin-1-yl)phenyl)-3-(4-(trifluoromethoxy)phenyl)urea]	7.4	0.43	
CN(C)Cc1cccc(-c2c(F)cc(O)c3c2C(C)(C)CN3c2ccccc2NC(=O)Nc2ccc(OC(F)(F)F)cc2)c1 [Example 249, 1-(2-(4-(3-((Dimethylamino)methyl)phenyl)-5-fluoro-7-hydroxy-3,3-dimethylindolin-1-yl)phenyl)-3-(4-(trifluoromethoxy)phenyl)urea]	12.2	0.7	
C=C(C)c1ccc(-c2c(F)cc(O)c3c2C(C)(C)CN3c2ccccc2NC(=O)Nc2ccc(OC(F)(F)F)cc2)cc1 [Example 250, 1-(2-(5-Fluoro-7-hydroxy-3,3-dimethyl-4-(4-(prop-1-en-2-yl)phenyl)indolin-1-yl)phenyl)-3-(4-(trifluoromethoxy)phenyl)urea]	29.5	0.22	
CC1(C)CN(c2ccccc2NC(=O)Nc2ccc(OC(F)(F)F)cc2)c2c(O)cc(F)c(-c3cccc(CN4CCOCC4)c3)c21 [Example 251, 1-(2-(5-Fluoro-7-hydroxy-3,3-dimethyl-4-(3-(morpholinomethyl)phenyl)indolin-1-yl)phenyl)-3-(4-(trifluoromethoxy)phenyl)urea]	16.9	0.93	
CC1(C)CN(c2ccccc2NC(=O)Nc2ccc(OC(F)(F)F)cc2)c2c(O)cc(F)c(C3CC3)c21 [Example 252, 1-(2-(4-Cyclopropyl-5-fluoro-7-hydroxy-3,3-dimethylindolin-1-yl)phenyl)-3-(4-(trifluoromethoxy)phenyl)urea]	18.3	0.42	
CC(C)n1nc(-c2c(F)cc(O)c3c2C(C)(C)CN3c2ccccc2NC(=O)Nc2nc3ccc(F)cc3s2)cc1C(F)(F)F [Example 253, 1-(2-(5-Fluoro-7-hydroxy-4-(1-isopropyl-5-(trifluoromethyl)-1H-pyrazol-3-yl)-3,3-dimethylindolin-1-yl)phenyl)-3-(6-fluorobenzo[d]thiazol-2-yl)urea]	33.4	0.12	
CC(C)(C)c1nc(-c2c(F)cc(O)c3c2C(C)(C)CN3c2ccccc2NC(=O)Nc2nc3ccc(F)cc3s2)co1 [Example 254, 1-(2-(4-(2-tert-Butyloxazol-4-yl)-5-fluoro-7-hydroxy-3,3-dimethylindolin-1-yl)phenyl)-3-(6-fluorobenzo[d]thiazol-2-yl)urea]	13.7	0.87	
CC(C)c1noc(-c2c(F)cc(O)c3c2C(C)(C)CN3c2ccccc2NC(=O)Nc2ccc(OC(F)(F)F)cc2)n1 [Example 256, 1-(2-(5-Fluoro-7-hydroxy-4-(3-isopropyl-1,2,4-oxadiazol-5-yl)-3,3-dimethylindolin-1-yl)phenyl)-3-(4-(trifluoromethoxy)phenyl)urea]	6.6	0.76	
CC1(C)CN(c2ccccc2NC(=O)Nc2nc3ccc(Cl)nc3s2)c2c(O)cc(F)c(-c3noc(C(F)(F)F)n3)c21 [Example 257, 1-(5-Chlorothiazolo[5,4-b]pyridin-2-yl)-3-(2-(5-fluoro-7-hydroxy-3,3-dimethyl-4-(5-(trifluoromethyl)-1,2,4-oxadiazol-3-yl)indolin-1-yl)phenyl)urea]	86.2	0.29	
CC(C)c1nc(-c2c(F)cc(O)c3c2C(C)(C)CN3c2ccccc2NC(=O)Nc2ccc(OC(F)(F)F)cc2)co1 [Example 258, 1-(2-(5-Fluoro-7-hydroxy-4-(2-isopropyloxazol-4-yl)-3,3-dimethylindolin-1-yl)phenyl)-3-(4-(trifluoromethoxy)phenyl)urea]	7.5	0.52	
CC(C)(C)c1nc(-c2c(F)cc(O)c3c2C(C)(C)CN3c2ccccc2NC(=O)Nc2ccc(OC(F)(F)F)cc2)co1 [Example 259, 1-(2-(4-(2-(tert-Butyl)oxazol-4-yl)-5-fluoro-7-hydroxy-3,3-dimethylindolin-1-yl)phenyl)-3-(4-(trifluoromethoxy)phenyl)urea]	46.3	0.58	
CC(C)Cc1nc(-c2c(F)cc(O)c3c2C(C)(C)CN3c2ccccc2NC(=O)Nc2ccc(OC(F)(F)F)cc2)co1 [Example 260, 1-(2-(5-Fluoro-7-hydroxy-4-(2-isobutyloxazol-4-yl)-3,3-dimethylindolin-1-yl)phenyl)-3-(4-(trifluoromethoxy)phenyl)urea]	18.8	0.4	
CC1(C)CN(c2ccccc2NC(=O)Nc2ccc(OC(F)(F)F)cc2)c2c(O)cc(F)c(-c3ccno3)c21 [Example 261, 1-(2-(5-Fluoro-7-hydroxy-4-(isoxazol-5-yl)-3,3-dimethylindolin-1-yl)phenyl)-3-(4-(trifluoromethoxy)phenyl)urea]	5.5	1.99	
CC1(C)CN(c2ccccc2NC(=O)Nc2ccc(OC(F)(F)F)cc2)c2c(O)cc(F)c(-c3cc(C(F)(F)F)no3)c21 [Example 262, 1-(2-(5-Fluoro-7-hydroxy-3,3-dimethyl-4-(3-(trifluoromethyl)isoxazol-5-yl)indolin-1-yl)phenyl)-3-(4-(trifluoromethoxy)phenyl)urea]	12.9	0.92	
CC1(C)CN(c2ccccc2NC(=O)Nc2nc3ccc(Cl)nc3s2)c2c(O)cc(F)c(-c3cc(C(F)(F)F)no3)c21 [Example 263, 1-(5-Chlorothiazolo[5,4-b]pyridin-2-yl)-3-(2-(5-fluoro-7-hydroxy-3,3-dimethyl-4-(3-(trifluoromethyl)isoxazol-5-yl)indolin-1-yl)phenyl)urea]	20.5	0.84	
CC1(C)CN(c2ccccc2NC(=O)Nc2nc3ccc(F)cc3s2)c2c(O)cc(F)c(-c3cc(C(F)(F)F)no3)c21 [Example 264, 1-(2-(5-Fluoro-7-hydroxy-3,3-dimethyl-4-(3-(trifluoromethyl)isoxazol-5-yl)indolin-1-yl)phenyl)-3-(6-fluorobenzo[d]thiazol-2-yl)urea]		0.62	18.2
CC1(C)CN(c2ccccc2NC(=O)Nc2nc3ccc(Cl)cc3s2)c2c(O)cc(F)c(-c3cc(C(F)(F)F)no3)c21 [Example 265, 1-(6-Chlorobenzo[d]thiazol-2-yl)-3-(2-(5-fluoro-7-hydroxy-3,3-dimethyl-4-(3-(trifluoromethyl)isoxazol-5-yl)indolin-1-yl)phenyl)urea]	49.9	0.4	
CC(C)n1nc(-c2c(F)cc(O)c3c2C(C)(C)CN3c2ccccc2NC(=O)Nc2nc3ccc(Cl)cc3s2)cc1C(F)(F)F [Example 266, 1-(6-Chlorobenzo[d]thiazol-2-yl)-3-(2-(5-fluoro-7-hydroxy-4-(1-isopropyl-5-(trifluoromethyl)-1H-pyrazol-3-yl)-3,3-dimethylindolin-1-yl)phenyl)urea]	41.1	0.13	

Source: patent US9540323B2 (BRISTOL-MYERS SQUIBB COMPANY, priority 2012, dated 2017)
